Measurements published in patent US5366983A, “Use of quaternary ammonium compounds to remove salmonella contamination from meat products” (The Board of Trustees of The University of Arkansas, priority 1992, dated 1994).
Values joined by “and” are separate entries in the source; they are usually repeats but may differ in a detail not shown here. Equal entries are not always repeated. Where two headings read alike, the source gives them in different places.

Legend:
[1] = system: Salmonella typhimurium ATCC 14028 attached to human buccal epithelial cells; assay type: cell-based; settings: Table A-1
Description: Studies were conducted on the attachment of Salmonella typhimurium to human buccal epithelial cells using the modified procedure of Boussard et al., International J. Pharmaceutics 53: 253-256 (1989). In this study, the activities of cationic and anionic surfactant compounds as well as certain chelating agents were compared on the detachment of S. typhimurium from epithelial cells.
To this end, bacteria were grown on nutrient agar for 16 hours at 37° C. The cells were suspended in 0.008 M phosphate buffered saline (PBS) at pH 7.2 and washed two times at 4500 rpm for 10 minutes. The last suspension was diluted in PBS to obtain a cell concentration of 0.5 to 1×10^9 cells/ml. Human epithelial cells were obtained by swabbing the buccal surface of a healthy, nonsmoking donor. […] The number of living cells was estimated and the suspension diluted to 0.5 to 1×10^5 cells/ml.
Next, the suspension of the human buccal cells was mixed with an equal volume of the bacterial suspension (3.0 ml), or PBS (0.8 ml). Contact was allowed for 1.5 hours at 35° C. under agitation. The mixtures were then centrifuged for 10 minutes at 4500 rpm. Each suspension, 1.0 ml, was transferred into Eppendorf vials and washed with PBS at 1500 rpm for 10 minutes. After the washing, the cells were treated with 1.0 ml PBS or 1.0 ml of the test chemical solution. Treatment was performed by suspending and vortexing on a low speed for 30 seconds followed by centrifugation at 1500 rpm for 10 minutes.
After the treatment, the cells were washed once with PBS and then 20 μl of erythrosin B was added to each vial. The suspension was centrifuged at 1500 rpm for 10 minutes, and the cells were washed twice under the same conditions. The final pellet was suspended in 300 μl of PBS. This suspension was spread out onto microscope slides and dried overnight at room temperature. After counter staining with methylene blue, the slides were microscopically examined under oil immersion.

[2] = system: Salmonella typhimurium ATCC 14028 attached to human buccal epithelial cells; assay: microbe, parasite or virus in culture; assay type: cell-based; settings: for adherence, mean value of attached bacteria: Table A-3; for EC50: read-out: EC50 (±SD), detachment
Description: Additional studies on the detachment of Salmonella typhimurium from human buccal epithelial cells were conducted.
S. typhimurium ATCC 14028 was grown in nutrient broth (BBL Microbiology system, Cockeysville, Md.) for 16 hours at 37° C. The cells were centrifuged and washed twice with 0.008 M phosphate buffered saline (PBS, at pH 7.2) at 4500 rpm for 10 minutes. The last suspension was diluted in PBS to obtain a cell concentration 0.5 to 1×10^9 cells/ml using spectrophotometric measurement. Human epithelial cells were obtained by swabbing the buccal surface of a healthy, nonsmoking donor. […] The number of living cells was estimated and the suspension was diluted to 0.5 to 1×10^5 cells/ml.
The suspension of the human buccal cells was mixed with an equal volume of the bacterial suspension (3.0 ml), or PBS (0.8 ml) in 10 ml Erlenmeyer flasks. Contact was allowed for 1.5 hours at 35° C. under agitation. After incubation, 1.0 ml of each suspension was transferred into an Eppendorff vial, centrifuged at 3000 rpm for 10 minutes, and washed with PBS. The cells were treated with 1.0 ml PBS or 1.0 ml of the test chemical solution. Treatment was performed by suspending, gently vortexing, and centrifuging at 1500 rpm for 10 minutes. After the treatment, the cells were washed and placed on microscopic slides for examination.
EC50 represents the inverse measurement of the potency of a compound. EC50 values were determined by a nonlinear regression of the detachment effect versus the cationic surfactant concentration data from Table A-3.

[3] = system: Salmonella typhimurium ATCC 14028; assay: Minimum growth inhibitory concentration, macrodilution; assay type: cell-based; settings: Mueler Hinton broth, macrodilution (NCCLS)
Description: Minimum growth inhibitory concentrations (MICs) of quaternary ammonium compounds and Na2 -EDTA for Salmonella were determined using Mueler Hinton broth (BBL Microbiology system, Cockeysville, Md.) and by the macrodilution method established by the National Committee for Clinical Laboratory Standards (NCCLS). Escherichia coli ATCC 25922 and Staphylococcus aureus ATCC 29213 were included in each assay as reference strains.

[4] = system: Salmonella typhimurium ATCC 14028; assay: Effect on viability of Salmonella in suspension (Tables D-1 to D-3); assay type: cell-based; settings: for bacterial viability: Table D-1; for EC50: Salmonella enterica, read-out: EC50 (±SD), effect on viability in suspension
Description: EC50 values for four of the compounds were calculated from the bactericidal activity of the compounds as a function of molar concentration by a nonlinear regression algorithm.
In addition to the quaternary ammonium compounds, the antimicrobial activities of chelating agents Na2 -EDTA and EGTA were investigated. Na2 -EDTA was purchased from the Sigma Chemical Company (St. Louis, Mo.). Na2 -EDTA was dissolved in 0.04 M PPB prior to the assay and further dilutions were made in the same buffer.
EGTA was purchased from the Aldrich Chemical Company (Milwaukee, Wis.). EGTA was dissolved in 0.04 M PPB according to the procedure described by Harafuji and Ogawa (J. Biochem. 87:1305-1312 (1980)). After heating EGTA for 15 minutes at 80° C., the pH was adjusted to 7.0 by addition of NaOH. EGTA was filter-sterilized using a 0.2 μm Acro disc filter (Gelman Sciences; Ann Arbor, Mich.) prior to the assay. Further dilutions were made in sterile PPB.

[5] = system: Salmonella typhimurium on chicken skin; assay: Effect of surfactants on Salmonella attached to chicken skin, drumsticks (Tables F1-F4); settings: 25° C.
Description: The following experiments utilizing chicken legs were conducted to determine the killing potential of a variety of surfactants against Salmonella on the skin and free in solutions. To this end, chicken legs obtained from the Department of Agriculture at the University of Arkansas, Fayetteville, were incubated for thirty minutes at room temperature with a 1:5000 dilution of Salmonella typhimurium. The chicken legs were removed five at a time and then rinsed twice in tap water to remove the unattached and excess Salmonella. The rinse water was sampled, diluted, and then plated onto XLD pour plates. […] The chicken legs were then removed and rinsed twice in tap water to remove the released Salmonella and excess chemicals. Rinses were then sampled, diluted, and then plated onto XLD pour plates.
The chicken legs were then individually washed with 100 ml sterile double distilled water, and then shaken fifty times. Samples of the wash H2 O were diluted and plated onto XLD pour plates. The chicken legs were further swabbed after the washing step above. The swabs were then plated onto the XLD plates. A set of wash samples were enriched with TT Broth Base Hajna and then plated onto XLD plates.
All of the samples were plated in 1 ml aliquots onto XLD pour plates. A positive control sample incubated in sterile double distilled water at 4° C. was run for each of the aforementioned conditions. Treatments occurred at both 4° C. and 25° C. The data is reported as the mean number of CFU/ml. The ratio in the table represents the number of chicken legs out of a sample of ten chicken legs producing the notated number of colonies, as indicated by the +, ++, +++, or ++++.

[6] = Salmonella enterica, Epithelial cell

SMILES	adherence, mean value of attached bacteria ([1]; 50 ug/ml)	adherence, mean value of attached bacteria ([2]; 100 ug/ml)	adherence, mean value of attached bacteria ([2]; 175 ug/ml)	EC50 [2, 6] [µM]	bacterial viability ([4]; 10 ug/ml)	Enrichment, chicken legs out of ten ([5]; 0.1%)	Rinse H2O ([5]; 0.1%)	Surfactant Solution ([5]; 0.1%) [CFU/ml]	Swabs, chicken legs producing the notated number of colonies ([5]; 0.1%)	Wash H2O, colonies ([5]; 0.1%)	Enrichment, chicken legs out of ten ([5]; 1.0%)	Rinse H2O ([5]; 1.0%) [CFU/ml]	Surfactant Solution ([5]; 1.0%) [CFU/ml]	Swabs, chicken legs producing the notated number of colonies ([5]; 1.0%)	Wash H2O, colonies ([5]; 1.0%) [CFU/ml]	Enrichment, chicken legs out of ten ([5]; .01%)	Rinse H2O ([5]; .01%)	Surfactant Solution ([5]; .01%) [CFU/ml]	Swabs, chicken legs producing the notated number of colonies ([5]; .01%)	Swabs, colonies ([5]; .01%)	also measured
CCCCCCCCCCCCCC[N+](C)(C)C.[Br-] [TTMAB, tetradecyltrimethylammonium bromide]	28 ± 14	42 ± 22 and 26 ± 14	28 ± 10	129 ± 3.9	1.33 ± 0.09 × 10^9 CFU/ml	0/10	++ (11-100)	0	5/10	0 CFU/ml	0/10	0	0	0/10	0	8/10	+ (1-10)	0	10/10	+ (1-10)	adherence, mean value of attached bacteria ([1]; 5 ug/ml): 37 ± 20; adherence, mean value of attached bacteria ([1]; 10 ug/ml): 39 ± 26; adherence, mean value of attached bacteria ([1]; 25 ug/ml): 24 ± 13; adherence, mean value of attached bacteria ([2]; 25 ug/ml): 91 ± 66; adherence, mean value of attached bacteria ([2]; 50 ug/ml): 53 ± 34; adherence, mean value of attached bacteria ([2]; 75 ug/ml): 72 ± 53; minimal effective concentration ([2]; Salmonella enterica, Epithelial cell, read-out: active concentration, detachment): 25 µg/mL; MIC [3]: 60 µg/mL; MIC ([3]; Salmonella enterica): 64 µg/mL; bacterial viability ([4]; 20 ug/ml): 1.06 ± 0.08 × 10^9 CFU/ml; bacterial viability ([4]; 60 ug/ml): 1.52 ± 2.07 × 10^3 CFU/ml; bacterial viability ([4]; 80 ug/ml): 100 ± 173 CFU/ml; bacterial viability ([4]; 100 ug/ml): 0 CFU/ml; EC50 [4]: 105 ± 0.8 µM; Swabs, colonies ([5]; 0.1%): + (1-10); Wash H2O, chicken legs producing the notated number of colonies ([5]; .01%): 10/10; Wash H2O, colonies ([5]; .01%): ++ (11-100)
CCCCCCCCCCCCCCCC[N+](C)(C)C.[Br-] [HTMAB, hexadecyltrimethylammonium bromide]	48 ± 20	82 ± 35	57 ± 33	333 ± 14	1.06 ± 0.08 × 10^9 CFU/ml and 1.67 ± 0.12 × 10^9 CFU/ml	5/10	+ (1-10)	0	6/10	0 CFU/ml	0/10	0	0	3/10	0	5/10	+ (1-10)	0	9/10	+ (1-10)	adherence, mean value of attached bacteria ([1]; 5 ug/ml): 49 ± 21; cytotoxicity to buccal epithelial cells ([1]; 500 ug/ml): cytotoxic; adherence, mean value of attached bacteria ([2]; 250 ug/ml): 33 ± 19; MIC [3]: 60 µg/mL; MIC ([3]; Salmonella enterica): 64 µg/mL; bacterial viability ([4]; 20 ug/ml): 3.23 ± 0.38 × 10^8 CFU/ml and 6.35 ± 1.03 × 10^8 CFU/ml; EC50 [4]: 48 ± 0.03 µM; Swabs, colonies ([5]; 0.1%): + (1-10); Swabs, colonies ([5]; 1.0%): + (1-10); Wash H2O, chicken legs producing the notated number of colonies ([5]; .01%): 10/10; Wash H2O, colonies ([5]; .01%): ++ (11-100)
CCCCCCCCCCCC[n+]1ccccc1 [DPC, dodecylpyridinium chloride]	46 ± 28	129 ± 87	110 ± 73	716 ± 63	1.39 ± 0.34 × 10^9 CFU/ml	8/10	0 CFU/ml	0	0/10	++ (11-100)	0/10	0	0	0/10	0	10/10	+ (1-10)	0	6/10	+ (1-10)	adherence, mean value of attached bacteria ([1]; 10 ug/ml): 70 ± 35; adherence, mean value of attached bacteria ([1]; 25 ug/ml): 55 ± 23; adherence, mean value of attached bacteria ([1]; 75 ug/ml): 34 ± 20; adherence, mean value of attached bacteria ([1]; 100 ug/ml): 34 ± 18; adherence, mean value of attached bacteria ([1]; 500 ug/ml): 14 ± 10; adherence, mean value of attached bacteria ([2]; 150 ug/ml): 141 ± 66; adherence, mean value of attached bacteria ([2]; 250 ug/ml): 62 ± 50; adherence, mean value of attached bacteria ([2]; 300 ug/ml): 61 ± 34; adherence, mean value of attached bacteria ([2]; 450 ug/ml): 54 ± 23; MIC ([3]; Salmonella enterica, read-out: MIC): 80 µg/mL; bacterial viability ([4]; 100 ug/ml): 9.8 ± 2.17 × 10^8 CFU/ml and 8.85 ± 0.3 × 10^8 CFU/ml; bacterial viability ([4]; 200 ug/ml): < 10^5 CFU/ml; bacterial viability ([4]; 400 ug/ml): 0 CFU/ml; bacterial viability ([4]; 1000 ug/ml): 0 CFU/ml; Wash H2O, chicken legs producing the notated number of colonies ([5]; 0.1%): 7/10; Wash H2O, chicken legs producing the notated number of colonies ([5]; .01%): 10/10; Wash H2O, colonies ([5]; .01%): ++ (11-100)
